Here are results for eight molecules from US20220402917A1, “COMPOUND AS SMALL MOLECULE INHIBITOR PD-1/PD-L1 AND APPLICATION THEREOF” (MEDSHINE DISCOVERY INC., priority 2019, published 2022).

Assay [1] has as its target T1, PD-L1 in MDA-MR-231 cells (Homo sapiens, UniProt Q9NZQ7).
T1 construct: endogenous in cells; host or cells: MDA-MB-231
The assay is described as follows: Effect on expression level of PD-L1 in MDA-MR-231 cells (FACS). It counts as cell-based. To be noted: 24 hours incubation, FACS detection of cell surface PD-L1. How it is done:
Experimental Example 2: Using MDA-MR-231 Cells to Detect the Effect of Compounds on the Expression Level of PD-L1
The use of a triple-negative breast cancer cell line (MDA-MB-231) is an indirect method to assess PD-L1 endocytosis. PD-L1 molecules on the cell surface can be degraded by lysosomal and proteasome pathways, and small molecule inhibitors are added to induce PD-L1 endocytosis. After co-incubating small molecules with MDA-MB-231 cells for 24 hours, flow cytometry (Fluorescence-activated Cell Sorting, FACS) is used to detect the content of PD-L1 on the cell surface, which can indirectly reflect the effect of small molecule-induced PD-L1 endocytosis. Flow cytometry (FACS) is used to detect the effect of the compounds of the present disclosure on the expression level of PD-L1 in MDA-MR-231 cells.
Phosphate buffer (DPBS), 1640 medium, penicillin-streptomycin, fetal bovine serum, non-essential amino acids, 2-hydroxy-1-ethanethiol (2-ME), human interferon γ, LIVE/DEAD staining solution, staining buffer, fixation buffer, 0.25% trypsin, EDTA, anti-human PD-L1, anti-human PD-L1 isotype.
1640 complete medium preparation: 50 mL of fetal bovine serum, 5 mL of non-essential amino acids, 5 mL of penicillin-streptomycin and 0.5 mL of 2-hydroxy-1-ethanethiol were added to 439.5 mL of 1640 medium, and evenly mixed.
10 mM EDTA preparation: 1 mL of 0.5M EDTA was added to 49 mL of DPBS, and evenly mixed.
1) MDA-MB-231 cell counting and plating: The culture flask was taken out, the medium was removed and the culture flask was rinsed once with DPBS. After the culture flask was rinsed, 3 mL of 0.25% trypsin was added to the culture flask and the culture flask was placed in a 37° C. incubator for 1.5 min. The culture flask was taken out, 9 mL of 1640 complete medium was added to stop the reaction, the cells was transferred to a 50 mL centrifuge tube, and centrifuged at 1000 rpm for 5 min at 37° C. An appropriate volume of medium was added to re-suspend the cells according to the number of cells, and the number of cells was counted with a cell counter. The cell concentration was adjusted to 5×10^5 cells/mL with medium. Planking: A volume of 200 μL of cell suspension was added to each well of a 96-well plate, ensure that the number of cells in each well was 1×10^5. The cells were incubated overnight in an incubator. 2) Drug incubation: 100-fold dilution of compounds were prepared, and the drug was subjected to a 5-fold gradient dilution. 2 μL of each 100-fold dilution of compounds were added to each well. The cells were incubated in an incubator at 37° C. for 24 hours. 3) PD-L1 cell staining and FACS detection: the culture plate was taken out and the supernatant medium was discarded. The cells were washed once with 200 μL 1×PBS. 100 μL of EDTA (final concentration of 10 mM) was added to the cell suspension, and the cell suspension was treated at 37° C. for 10 min. Then after the cell suspension was centrifuged at 1500 rpm for 5 min, the cell suspension was washed once with 200 μL of staining solution. Staining: anti-human PD-L1 (2 μL per well) and LIVE/DEAD staining solution (1:1000) were diluted in staining solution, 50 μL of the staining solution was added to each well, and the staining was conducted at 4° C. for 30 min. Then the solution was washed twice with 200 μL of staining solution. Fixation: 100 μL of fixing solution was added to each well, the fixation was conducted at 4° C. for 15 min. The solution was then washed twice with 200 μL of staining solution, and 150 μL of solution was added to re-suspend the cells, followed by FACS detection.
Table 2 provides the effects of the compounds of the examples of the present disclosure on the expression level of PD-L1 in MDA-MR-231 cells.

For assay [2], the target named is T2, PD1/PD-L1 (Homo sapiens, UniProt Q9NZQ7). As to the kind of experiment: PD-1/PD-L1 homogeneous time-resolved fluorescence (HTRF) binding experiment. Set-up: purchased BPS Biosciences. As to conditions: HTRF (TR-FRET), PD-L1-biotin, PD1-Eu. An excerpt:
Experimental Example 1: PD-1/PD-L1 Homogenouse Time-Resolved Fluorescence (HTRF) Binding Experiment
When the PD-1 molecule as the donor is very close to the PD-L1 molecule as the acceptor, the donor molecule will transfer the energy to the receptor molecule, which in turn causes the receptor molecule to emit fluorescence. The ability of small molecules to prevent the binding of PD-L1 to PD-1 can be tested by detecting the intensity of fluorescence. A homogeneous time-resolved fluorescence (HTRF) binding experiment is used to detect the ability of the compounds of the present disclosure to inhibit the binding of PD-1/PD-L1.
PD1/PD-L1 TR-FRET detection kit was purchased from BPS Biosciences. Nivo multi-label analyzer (PerkinElmer).
PD1-Eu, Dye-labeled acceptor, PD-L1-biotin and compounds to be tested were diluted with the buffer in the kit. The compounds to be tested were subjected to 5-fold dilution to eight concentration gradients with a row gun. That is, from 40 μM to 0.5 nM, the DMSO concentration was 4%, and a double-well experiment was set up. 5 μL of inhibitor with each concentration gradient were added to the microwell plate, and 5 μL buffer containing 4% DMSO and 5 μL PD-L1-biotin (PD-L1-biotin) (60 nM) were added into well with the maximum signal (Max) and the well with the minimum signal (Min), only 5 μL of buffer was added to the well with the minimum signal (Min), and the incubation was conducted at 25° C. for 20 minutes. After the incubation was completed, 5 μL of diluted PD1-Eu (10 nM) and […] were added to each well. The reaction system was placed at 25° C. for 90 minutes. The TR-FRET signal was read by a multi-label analyzer after the reaction was completed.
Using the equation (sample−Min)/(Max−Min)×100% to convert the raw data into inhibition rate, and the IC50 value can be obtained by curve fitting with four parameters (obtained from log(inhibitor) vs. response—Variable slope mode in GraphPad Prism). Table 1 provides the inhibitory activity of the compounds of the examples of the present disclosure on PD1/PD-L1 binding
Target sequence in this assay (Q9NZQ7 19-239 limits assumed): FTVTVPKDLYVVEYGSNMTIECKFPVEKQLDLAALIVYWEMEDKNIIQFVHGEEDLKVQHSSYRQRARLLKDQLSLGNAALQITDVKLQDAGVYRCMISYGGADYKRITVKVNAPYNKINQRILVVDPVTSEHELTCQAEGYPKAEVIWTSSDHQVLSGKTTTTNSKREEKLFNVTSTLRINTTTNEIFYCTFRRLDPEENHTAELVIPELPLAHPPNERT

Assay [3] concerns the target T2, PD1/PD-L1. As to the kind of experiment: NFAT activity test (TCR Activitor/PD-L1 CHO cells with PD-1/NFAT Reporter-Jurkat cells). The format is cell-based. Further details: host or cells: TCR Activitor/PD-L1 CHO cells; PD-1/NFAT Reporter-Jurkat cells. To be noted: TCR Activitor/PD-L1 CHO cells + PD-1/NFAT Reporter-Jurkat cells, 5 hours, luciferase; for IC50: read-out: IC50, inhibitory activity on PD1/PD-L1 binding (NFAT activity test). A digest of the protocol: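 TCR activator/PD-L1 CHO cells were pretreated 30 min at 37 °C with compound (20 μM to 0.25 nM, 5-fold steps, 2% DMSO). PD-1/NFAT reporter Jurkat cells were then added for 5 h at 37 °C. NFAT-driven luciferase read by Bright-Glo luminescence, normalised to Min/Max, IC50 from 4-parameter fit.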
Target sequence in this assay (Q9NZQ7 19-290): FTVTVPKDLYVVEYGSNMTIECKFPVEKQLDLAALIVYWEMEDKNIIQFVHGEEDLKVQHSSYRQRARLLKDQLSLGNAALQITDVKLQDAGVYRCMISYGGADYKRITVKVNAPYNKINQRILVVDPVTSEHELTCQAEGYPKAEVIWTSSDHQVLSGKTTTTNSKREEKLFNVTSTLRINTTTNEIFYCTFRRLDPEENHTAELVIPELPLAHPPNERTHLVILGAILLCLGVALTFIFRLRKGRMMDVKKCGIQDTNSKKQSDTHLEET

T1 sequence (Q9NZQ7 19-290): as above

Consider `Cc1cc(C(=O)Nc2cccc(-c3cccc(NC(=O)c4ccc(CNCCO)cn4)c3C)c2C)nc2c1CCN(CCO)C2` [Compound 1], for which the IC50 worked out at 62.5 nM in assay [1], 2.08 nM on PD1/PD-L1 [2] and 34.9 nM on PD1/PD-L1 [3]. Further, on PD1/PD-L1 [3], the “Maximum effect (induction fold)” value worked out at 3.71 induction fold.

Consider `Cc1cc(C(=O)Nc2cccc(-c3cccc(NC(=O)c4ccc(CNCCO)cn4)c3Cl)c2C)nc2c1CCN(CCO)C2` [Compound 6], for which the values for the IC50 (in assay [1]; at PD1/PD-L1 [2]; on PD1/PD-L1 [3]) were 93.2 nM, 4.65 nM and 14.3 nM, respectively. Besides, at PD1/PD-L1 [3], the “Maximum effect (induction fold)” value is on record as 3.54 induction fold.

As for `Cc1cc(C(=O)Nc2cccc(-c3cccc(NC(=O)c4ccc(CNCCO)cn4)c3C)c2Cl)nc2c1CCN(C(CO)CO)C2` [Compound 11], the values for the IC50 (in assay [1]; on PD1/PD-L1 [2]; at PD1/PD-L1 [3]) were 25.1 nM, 4.54 nM and 42.5 nM, respectively. Moreover, the “Maximum effect (induction fold)” value at PD1/PD-L1 [3] is listed as 3.81 induction fold.

Consider `Cc1cc(C(=O)Nc2cccc(-c3cccc(NC(=O)c4ccc(CNCCO)cn4)c3C)c2Cl)nc2c1CCN(C1CCC(O)CC1)C2` (stereo not shown) [Compound 15], for which the IC50 was determined as 29.3 nM in assay [1], 8.86 nM at PD1/PD-L1 [2] and 33.9 nM on PD1/PD-L1 [3]. For the same molecule, the “Maximum effect (induction fold)” value at PD1/PD-L1 [3] amounted to 3.80 induction fold.

For the molecule `Cc1cc(C(=O)Nc2cccc(-c3cccc(NC(=O)c4ccc(CNCCO)cn4)c3C)c2Cl)nc2c1CCN(CC(=O)O)C2` [Compound 17], the IC50 was determined as 0.75 nM in assay [1], 1.49 nM at PD1/PD-L1 [2] and 25.1 nM on PD1/PD-L1 [3]. Further, the “Maximum effect (induction fold)” value on PD1/PD-L1 [3] stood at 4.23 induction fold.

As for `Cc1c(NC(=O)c2ccc(CNCCO)cn2)cccc1-c1cccc(NC(=O)c2cc(NCCO)c3c(n2)CN(CCO)CC3)c1Cl` [Compound 18], the IC50 is 70.6 nM in assay [1], 3.16 nM at PD1/PD-L1 [2] and 79.7 nM at PD1/PD-L1 [3]. For the same molecule, the “Maximum effect (induction fold)” value on PD1/PD-L1 [3] amounted to 3.77 induction fold.

`Cc1cc(C(=O)Nc2cccc(-c3cccc(NC(=O)c4ccc(CNCCO)cn4)c3C)c2Cl)nc2c1CCN(C1CCC(C)(C(=O)O)CC1)C2` (stereo not shown) [Compound 20]: the IC50 at PD1/PD-L1 [2] amounted to 3.58 nM; on PD1/PD-L1 [3], 16.9 nM. In addition, on PD1/PD-L1 [3], the “Maximum effect (induction fold)” value was 3.43 induction fold.

Regarding `Cc1cc(C(=O)Nc2cccc(-c3cccc(Nc4nc(C(F)F)nc5cc(CN6CC[C@@H](O)C6)cnc45)c3C)c2Cl)nc2c1CCN(CC(=O)O)C2` [Compound 23], the IC50 in assay [1] was 0.22 nM; on PD1/PD-L1 [2], 3.68 nM; on PD1/PD-L1 [3], 18.4 nM. For the same molecule, the “Maximum effect (induction fold)” value at PD1/PD-L1 [3] is listed as 4.84 induction fold.
